Measurements published in the supplement of paper PMC8617591.

What was measured:
[1] = system: Mycobacterium tuberculosis Erdman (autoluminescent); assay: total FIC90 (Loewe) at 90% inhibition, three-drug combination (log2); higher = more antagonistic
Protocol: (§1)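 DiaMOND equipotent three-drug combination dose responses (10 doses, 1.5- or 2-fold spacing, centred on IC90) against autoluminescent M. tuberculosis Erdman in 8 in vitro models. Read-out is OD600, or luminescence for the intracellular and dormancy models, normalised to untreated wells. Hill-fit Einf, AUC25 and GRinf are potency metrics; FIC50 and FIC90 are total Loewe fractional inhibitory concentrations as log2 (negative = synergy).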

[2] = system: Mycobacterium tuberculosis Erdman (autoluminescent); assay: Einf, fitted maximum growth inhibition of three-drug combination (fraction); higher = stronger maximal inhibition
Protocol: as §1

[3] = system: Mycobacterium tuberculosis Erdman (autoluminescent); assay: GRinf, maximum normalised growth rate inhibition (three-drug combination) (unitless (-1 to 1)); higher = less effect (negative = killing)
Protocol: as §1

[4] = system: Mycobacterium tuberculosis Erdman (autoluminescent); assay: AUC25, normalised area under dose response up to IC25 (three-drug combination) (fraction (0-1)); higher = more potent at low dose
Protocol: as §1

[5] = system: Mycobacterium tuberculosis Erdman (autoluminescent); assay: total FIC50 (Loewe) at 50% inhibition, three-drug combination (log2); higher = more antagonistic
Protocol: as §1

CC(C)/N=c1\cc2n(-c3ccc(Cl)cc3)c3ccccc3nc-2cc1Nc1ccc(Cl)cc1 [clofazimine] + NNC(=O)c1ccncc1 [isoniazid] + NC(=O)c1cnccn1 [pyrazinamide]
Conditions	AUC25, [4]	Einf, [2]	GRinf, [3]	total FIC50, [5]	total FIC90, [1]
in vitro model: acidic pH 5.7, time point: constant (~7 days, model-specific)	0.105	0.819	-0.294	0.25	–
in vitro model: acidic pH 5.7, time point: terminal (~4-5 doublings, model-specific)	0.0972	0.977	-0.35	-0.0265	-0.409
in vitro model: intracellular J774, time point: constant = terminal	–	0.964	-0.705	–	0.267

Conditions	AUC25, [4]	Einf, [2]	GRinf, [3]	total FIC50, [5]	total FIC90, [1]
in vitro model: butyrate, time point: constant (~7 days, model-specific)	0.112	0.953	-0.112	-0.201	0.915
in vitro model: butyrate, time point: terminal (~4-5 doublings, model-specific)	0.0804	0.968	-0.0686	-0.0738	0.168
in vitro model: cholesterol 0.05 mM, time point: constant (~7 days, model-specific)	0.131	0.74	-0.217	–	–
in vitro model: cholesterol 0.05 mM, time point: terminal (~4-5 doublings, model-specific)	0.132	0.924	-0.252	0.486	–
in vitro model: cholesterol-high 0.2 mM, time point: constant (~7 days, model-specific)	0.0931	0.938	-0.335	0.341	–
in vitro model: cholesterol-high 0.2 mM, time point: terminal (~4-5 doublings, model-specific)	0.0853	0.997	-0.517	0.634	0.384
in vitro model: dormancy (butyrate + nitrate, low O2), time point: constant (~7 days, model-specific)	0.0828	0.88	0.259	-0.675	-0.607
in vitro model: dormancy (butyrate + nitrate, low O2), time point: terminal (~4-5 doublings, model-specific)	0.0727	0.986	-0.174	-0.286	0.161
in vitro model: standard 7H9 glycerol, time point: constant = terminal	0.114	0.942	-0.135	0.447	–
in vitro model: valerate, time point: constant (~7 days, model-specific)	0.119	0.86	0.022	-0.0616	–
in vitro model: valerate, time point: terminal (~4-5 doublings, model-specific)	0.0674	0.933	0.0539	0.187	0.474

COc1c(N2C[C@@H]3CCCN[C@@H]3C2)c(F)cc2c(=O)c(C(=O)O)cn(C3CC3)c12 [moxifloxacin] + NC(=O)c1cnccn1 [pyrazinamide] + CO[C@H]1/C=C/O[C@@]2(C)Oc3c(C)c(O)c4c(O)c(c(/C=N/N5CCN(C)CC5)c(O)c4c3C2=O)NC(=O)/C(C)=C\C=C\[C@H](C)[C@H](O)[C@@H](C)[C@@H](O)[C@@H](C)[C@H](OC(C)=O)[C@@H]1C [rifampicin]
Conditions	AUC25, [4]	Einf, [2]	GRinf, [3]	total FIC50, [5]	total FIC90, [1]
in vitro model: acidic pH 5.7, time point: constant (~7 days, model-specific)	0.0731	0.851	-0.155	0.177	–
in vitro model: acidic pH 5.7, time point: terminal (~4-5 doublings, model-specific)	0.0678	0.99	-0.208	0.423	-0.913
in vitro model: intracellular J774, time point: constant = terminal	–	0.99	-0.539	–	0.76

Conditions	AUC25, [4]	Einf, [2]	GRinf, [3]	total FIC50, [5]	total FIC90, [1]
in vitro model: butyrate, time point: constant (~7 days, model-specific)	0.119	0.869	0.125	0.49	2.29
in vitro model: butyrate, time point: terminal (~4-5 doublings, model-specific)	0.114	0.977	-0.00285	0.525	1.3
in vitro model: cholesterol 0.05 mM, time point: constant (~7 days, model-specific)	0.096	0.6	0.1	–	–
in vitro model: cholesterol 0.05 mM, time point: terminal (~4-5 doublings, model-specific)	0.0868	0.868	-0.00841	1.23	–
in vitro model: cholesterol-high 0.2 mM, time point: constant (~7 days, model-specific)	0.0908	0.912	-0.393	1.26	–
in vitro model: cholesterol-high 0.2 mM, time point: terminal (~4-5 doublings, model-specific)	0.0879	1	-0.949	1.58	1.47
in vitro model: dormancy (butyrate + nitrate, low O2), time point: constant (~7 days, model-specific)	0.0806	0.87	0.204	0.465	-0.0278
in vitro model: dormancy (butyrate + nitrate, low O2), time point: terminal (~4-5 doublings, model-specific)	0.0656	0.978	-0.115	0.411	0.407
in vitro model: standard 7H9 glycerol, time point: constant = terminal	0.0452	0.781	0.36	–	–
in vitro model: valerate, time point: constant (~7 days, model-specific)	0.0626	0.785	0.176	0.864	–
in vitro model: valerate, time point: terminal (~4-5 doublings, model-specific)	0.0319	0.909	0.127	0.853	0.657
